{
  "source": "patent US6881584B1",
  "about": "“Infrared thermography” (SmithKline Beecham Corporation, priority 1998, dated 2005)",
  "key": {"thoracic area": {"system": "thoracic area", "test": "Infrared thermography of thoracic area of nude mice treated with inhalant", "assay_type": "in vivo", "conditions": "vs vehicle", "protocol": "(§1) Male AKR/J, C57BL/6J, and SWR/J mice were purchased from 4-8 weeks of age from Jackson Laboratories (Bar Harbor, Me.). Mice were fed high and low fats diets containing high sucrose as defined by Surwit et al., (Metabolism 44(5):645-651 (1995)). After 14 weeks on these diets, the intrascapular fur was shaved, the animals were dosed (intraperitineal) with 1 mg/kg of BRL37344, and the animals were anesthetized with isofluorane. Nude mice (BALB/C) were 6-8 weeks old and were dosed with inhalant two times before thermal profiling. The Lewis rat strain (200-250 g) were used for both the MED and inflammation experiments. Infrared thermographic images and temperature calculations were recorded using an Agema Thermovision 900 Infrared System.\nFurthermore, the bioavailability and bioactivity of inhalants in animals and man is often difficult to measure and quantitate. Assays available for measuring bioavailabilty of inhalants involve measuring the uptake of radiolabeled inhalant in selected tissues (eg. lung). Infrared thermography provides a non-invasive method for measuring the bioavailibilty/bioactivity of inhalant compounds. Thus, infrared thermography was used to measure the thermal activity induced by an inhalant in the thoracic area of nude mice."}, "[1]": {"system": "intrascapular brown adipose tissue (IBAT)", "test": "IBAT thermogenesis in ob/ob mice treated with PPARγ agonist", "assay_type": "in vivo", "conditions": "two weeks treatment, compared to control animals", "protocol": "(§2) Heat generation was measured using a Stirling cooled Agema Thermovision 900 Infrared System AB (Marietta, Ga.) equipped with a SW Scanner and 40°×25° lens which detects a 2-5.4 micron spectral response. […] The focal distance was 6 cm. Images were captured using a recurs function set at 16 or an averaging function set at 32. The data was analyzed using OS-9 advanced systems and ERIKA 2.00 software according to the manufacturer's specifications (FLIR Infrared Systems AB, Danderyd, Sweden). Thermography of adipocytes was performed by maintaining the ambient temperature of the cultured cells at 37±0.02° C. using a Queue Systems Inc. (Parkersburg, W.Va.) incubator, model QWJ500SABA. Spectral analysis of yeast was performed at 30±0.02° C. using the same incubator system. After treating the cells with experimental agents (e.g., rotenone etc.), the temperature was equilibrated for 10 minutes in the incubator before measuring real time thermogenesis for all microtiter plate applications. Various color scales in the visible wavelength were used to depict the temperature fluctuations of the recorded images. Although temperature scales are constant, the color scale images are variable and can be adjusted with level and span controls."}, "C3H10T1/2 cells": {"system": "C3H10T1/2 cells", "test": "Infrared thermography of heat production in differentiating C3H10T1/2 cells (PPARγ agonists)", "assay_type": "cell-based", "conditions": "in the presence of insulin and 9-cis retinoic acid (FIG. 7), read-out: EC50(μM), thermogenesis and lipogenesis assays", "protocol": "(§3) Human subcutaneous adipocytes were purchased from Zen-Bio, Inc. (Research Triangle Park, N.C.). C3H10T1/2 clone 8 fibroblasts were differentiated into adipocytes as previously described (Lenhard et al, Biochem. Pharmacol. 54:801-808 (1997), Paulik and Lenhard, Cell Tissue Res. 290:79-87 (1997)). After 7 days in culture, triglyceride accumulation was determined by adding lipoprotein lipase and GPO-Trinder reagent (assay kit 337-B, Sigma Diagnostics, St. Louis, Mo.) to the cells (50 μl/cm^2) and incubating the lysates at 37° C. for 2 hours. The optical density was measured using a spectrophotometer set at a wavelength of 540 nm. Lipolysis was measured as previously described (Lenhard et al, Biochem. Pharmacol. 54:801-808 (1997)).\nHeat generation was measured using a Stirling cooled Agema Thermovision 900 Infrared System AB (Marietta, Ga.) equipped with a SW Scanner and 40°×25° lens which detects a 2-5.4 micron spectral response. […] The focal distance was 6 cm. Images were captured using a recurs function set at 16 or an averaging function set at 32. The data was analyzed using OS-9 advanced systems and ERIKA 2.00 software according to the manufacturer's specifications (FLIR Infrared Systems AB, Danderyd, Sweden). […] Various color scales in the visible wavelength were used to depict the temperature fluctuations of the recorded images. […]"}, "C3H10T1/2 adipocytes [2]": {"system": "C3H10T1/2 adipocytes", "test": "Lipolysis in adipocytes treated with β-AR-agonists", "assay_type": "cell-based", "conditions": "Mus musculus, C3H 10T1/2, read-out: EC50 (nM) Lipolysis", "protocol": "as §3\n(§4) As a control, the effects of β-AR-agonists on lipolysis was also measured. […] In general, this expands to measuring thermogenic activity of both catabolic and anabolic mediated-effects of potential drug candidates."}, "C3H10T1/2 adipocytes [3]": {"system": "C3H10T1/2 adipocytes", "test": "Infrared thermography of thermogenesis in cultured adipocytes (β-AR-agonists)", "assay_type": "cell-based", "conditions": "for EC50: Mus musculus", "protocol": "as §3, §2\nThe β3-AR-agonists are candidate therapeutic agents for the treatment of diabetes and obesity. Although, the mechanism of action for these agents is thought to involve increased metabolic rate (Scarpace, Ann. N.Y. Acad. Sci. 813:111-116 (1997)), it has yet to be shown that β-AR-agonists increase heat output by adipocytes. Therefore, it was determined whether infrared imaging could be used to monitor the effects of β-AR-agonists on thermogenesis in cultured adipocytes.\nas §4"}, "[4]": {"target": "T1, beta 3 adrenergic receptor (β3AR) (Homo sapiens, UniProt P13945)", "T1 construct": "expressed in transfected cells; host or cells: Chinese Hamster Ovary (CHO) cells", "T1 sequence (P13945 whole entry)": "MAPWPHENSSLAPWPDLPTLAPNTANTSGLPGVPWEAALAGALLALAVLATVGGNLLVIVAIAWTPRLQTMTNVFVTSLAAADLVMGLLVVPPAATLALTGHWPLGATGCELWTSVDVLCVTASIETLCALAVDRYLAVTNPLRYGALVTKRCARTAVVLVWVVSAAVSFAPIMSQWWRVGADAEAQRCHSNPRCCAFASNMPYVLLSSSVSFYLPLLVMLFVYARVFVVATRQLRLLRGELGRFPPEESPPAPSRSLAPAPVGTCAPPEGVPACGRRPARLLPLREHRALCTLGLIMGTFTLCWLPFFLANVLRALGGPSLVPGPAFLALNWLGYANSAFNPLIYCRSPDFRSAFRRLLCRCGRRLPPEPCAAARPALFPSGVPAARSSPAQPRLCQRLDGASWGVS", "test": "Infrared thermography of CHO cells overexpressing the β3AR receptor", "assay_type": "cell-based", "protocol": "as §2"}, "genitalia": {"system": "genitalia", "test": "Thermogenesis in rat genitalia (male erectile dysfunction)", "assay_type": "in vivo", "conditions": "rats, 2 hours after PO dosing, 3.0 or 0.3 mg/kg", "protocol": "as §1\nMale erectile dysfunction (MED) is treatable with drugs that increase blood flow to the genitalia. Increased local thermogenesis is associated with increased local blood flow. One drug that acts in this manner and treats MED is Pinacidil. […] Thus, infrared thermography provides a quantitative and non-invasive method for identifying and evaluating drug candidates for the MED indication as well as identifying candidates that can cause erection as a side effect."}, "UCP2": {"system": "UCP2", "test": "Infrared thermography of yeast expressing UCP2", "assay_type": "cell-based", "conditions": "galactose-induced UCP2", "protocol": "Human skeletal muscle cDNA (#7175-1) was purchased from Clontech (Palo Alto, Calif.). UCP2 specific-sequences were PCR amplified from the sample using oligonucleotide primers that matched the 5′ and 3′ ends of a published sequence (GenBank U82819). Vent polymerase was used (New England Biolabs, Beverly, Mass.) in a standard reaction mixture with 2 mM MgSO4 and 5% DMSO. The cycle parameters were 94° C. for 1 min., 55° C. for 1 min., and 72° C. for 1 min., repeated 29 times. The sample was passed over an S-400 spin column (Pharmacia, Piscataway, N.J.) prior to ligation in a vector for transformation of E. coli. The authenticity of the clone was confirmed by DNA sequence analysis. For the experiments in yeast, the UCP2 coding sequence was amplified by PCR using primers with the sequence […] AAGGCCA (SEQ ID NO:1) (sense) and […] (SEQ ID NO:2) (antisense) followed by a second PCR using primers with the sequence […] (SEQ ID NO:3) (sense) and […] (SEQ ID NO:4) (antisense). The PCR product was cloned into pYX233 (R&D Systems) by homologous recombination in yeast strain W303 (a/a homozygous for ade2-1, his3-1, 15 leu2-3, 112, trp1-1, ura3-1). Yeast transformants were selected on BSM-trp agar (Bio 101, Vista, Calif.). The correct UCP2 sequence was verified by sequencing plasmids back-extracted from yeast to E. coli. […]"}, "human adipocytes": {"system": "human adipocytes", "test": "Infrared thermography of human adipocytes in 96-well plates", "assay_type": "cell-based", "conditions": "dose response, relative to untreated cells", "method": "Heat generation was measured using a Stirling cooled Agema Thermovision 900 Infrared System AB (Marietta, Ga.) equipped with a SW Scanner and 40°×25° lens which detects a 2-5.4 micron spectral response. […] The focal distance was 6 cm. Images were captured using a recurs function set at 16 or an averaging function set at 32. The data was analyzed using OS-9 advanced systems and ERIKA 2.00 software according to the manufacturer's specifications (FLIR Infrared Systems AB, Danderyd, Sweden). Thermography of adipocytes was performed by maintaining the ambient temperature of the cultured cells at 37±0.02° C. using a Queue Systems Inc. (Parkersburg, W.Va.) incubator, model QWJ500SABA. […] After treating the cells with experimental agents (e.g., rotenone etc.), the temperature was equilibrated for 10 minutes in the incubator before measuring real time thermogenesis for all microtiter plate applications. Various color scales in the visible wavelength were used to depict the temperature fluctuations of the recorded images. Although temperature scales are constant, the color scale images are variable and can be adjusted with level and span controls."}, "yeast": {"system": "yeast", "assay_type": "cell-based", "conditions": "dose response, relative to untreated cells", "method": "Heat generation was measured using a Stirling cooled Agema Thermovision 900 Infrared System AB (Marietta, Ga.) equipped with a SW Scanner and 40°×25° lens which detects a 2-5.4 micron spectral response. […] The focal distance was 6 cm. Images were captured using a recurs function set at 16 or an averaging function set at 32. The data was analyzed using OS-9 advanced systems and ERIKA 2.00 software according to the manufacturer's specifications (FLIR Infrared Systems AB, Danderyd, Sweden). […] Spectral analysis of yeast was performed at 30±0.02° C. using the same incubator system. After treating the cells with experimental agents (e.g., rotenone etc.), the temperature was equilibrated for 10 minutes in the incubator before measuring real time thermogenesis for all microtiter plate applications. Various color scales in the visible wavelength were used to depict the temperature fluctuations of the recorded images. Although temperature scales are constant, the color scale images are variable and can be adjusted with level and span controls."}, "hair-loss": {"system": "hair-loss", "test": "Chemotherapy-induced hair-loss by infrared thermography in newborn pups treated in utero", "assay_type": "in vivo, rat", "conditions": "6 mg/kg", "excerpt": "Hair loss can result from undesirable side-effects of various therapies (e.g., radiation treatment of cancer patients, surgery etc.) and can occur naturally with age, whereas surgical or pharmacological intervention can restore hair growth. Since hair provides insulation against heat loss and aids in the maintenance of a constant body temperature, it was of interest to determine if infrared thermography can be used to measure hair loss. The lack of progress in the treatment and prevention of chemotherapy-induced alopecia is in part due to the lack of a reproducible animal model as well as a quantitative method to measure hair-loss. To determine if infrared imaging can be used to quantitatively measure chemotherapy induced hair-loss, newborn rat pups that were treated in utero with the known cancer agent, etoposide, were thermally profiled for hair-loss."}, "tissue vascularization": {"system": "tissue vascularization", "conditions": "nude mice, vs control injection", "method": "Nude mice were injected with either VEGF peptide or a control followed by themographic imaging of both injection sites."}, "HUVEC cells": {"system": "HUVEC cells", "conditions": "10 minutes", "protocol": "as §2"}, "liver": {"system": "liver", "assay_type": "in vivo", "conditions": "ob/ob mice, 0.1-1 mg/kg i.p., 90 minutes, dose-dependent", "protocol": "FIG. 29. Liver thermogenesis in ob/ob mice 90 minutes after treatment with lipopolysaccharide (LPS) detected by IR thermography. Male ob/ob mice were housed and maintained as described in FIG. 1. Mice were dosed at 0.0, 0.1, 0.3, or 1 mg/kg LPS in water vehicle (0.5 mL i.p.; n=10 per dose) and anesthetized using isoflurane as described above 90 minutes after treatment. The abdomens of the anesthetized mice were surgically opened to expose the liver and Bioclusive adhesive was placed over the entire exposed area. IR images of the liver region were acquired and analyzed as detailed in FIG. 28. […] Quantification of the IR signal in the liver region is shown in the bottom panel. Data are means±SEM for n=10 animals per group. Asterisks (*) denote statistical differences from control (p<0.05, ANOVA with Student-Newman-Keuls post hoc tests).\nUse of IR transparent adhesive to image liver thermogenesis in vivo. […] Indeed, temperature measurements obtained by IR thermography correlated well with liver toxicity measured as AST release (r=0.99). In addition, temperature changes measured using IR thermography correlated with alanine aminotransferase (ALT) release, another marker of liver injury (r=0.76, data not shown)."}},
  "data": [
    {"compound": "CC(C)(C)NCC(O)c1ccc(O)c(CO)c1", "note": "(centres unmarked) [Albuterol]", "values": [
      {"measurement": "torso area temperature", "setting": "thoracic area", "value": "torso temperature increases after 2.5 minutes"}
    ]},
    {"compound": "CN(CCOc1ccc(C[C@H](Nc2ccccc2C(=O)c2ccccc2)C(=O)O)cc1)c1ccccn1", "note": "[GW1929]", "values": [
      {"measurement": "IBAT thermogenesis", "setting": "[1]", "value": "reduction in IBAT thermogenesis"},
      {"measurement": "EC50", "setting": "C3H10T1/2 cells", "value": 0.052, "unit": "µM"}
    ]},
    {"compound": "CC(C)NCC(O)c1ccc(O)c(O)c1", "note": "(centres unmarked) [Isoproterenol]", "values": [
      {"measurement": "EC50", "setting": "C3H10T1/2 adipocytes [2]", "value": 27.1, "unit": "nM"},
      {"measurement": "stimulation of thermogenesis", "setting": "C3H10T1/2 adipocytes [3]; C3H10T1/2 adipocytes", "value": "stimulated"},
      {"measurement": "EC50", "setting": "C3H10T1/2 adipocytes [3]; C3H 10T1/2, adipocytes, infrared thermography, dose response, read-out: EC50 (nM) Thermogenesis", "value": 28, "unit": "nM"},
      {"measurement": "thermogenic response of CHO cells", "setting": "[4]", "value": "responsive in a dose-dependent manner"}
    ]},
    {"compound": "CC(N/C(=N\\C#N)Nc1ccncc1)C(C)(C)C", "note": "(centres unmarked) [Pinacidil]", "values": [
      {"measurement": "thermogenesis in the genitalia", "setting": "genitalia", "value": "increase in thermogenesis"}
    ]},
    {"compound": "C=C(C)[C@H]1Cc2c(ccc3c2O[C@@H]2COc4cc(OC)c(OC)cc4[C@@H]2C3=O)O1", "note": "[Rotenone]", "values": [
      {"measurement": "UCP2-mediated thermogenesis", "setting": "UCP2", "value": "inhibited"},
      {"measurement": "thermogenesis in human adipocytes", "setting": "human adipocytes", "value": "inhibited thermogenesis"},
      {"measurement": "thermogenesis in yeast", "setting": "yeast", "value": "inhibited thermogenesis"},
      {"measurement": "EC50", "setting": "C3H10T1/2 adipocytes [3]; C3H 10T1/2, read-out: EC50 (nM) Thermogenesis", "value": 8.5, "unit": "nM"},
      {"measurement": "thermogenesis of cells treated with β-AR-agonists", "setting": "C3H10T1/2 adipocytes [3]; cells treated with 50 nM of the various β-AR-agonists", "value": "inhibited thermogenesis"}
    ]},
    {"compound": "COc1cc([C@@H]2c3cc4c(cc3[C@@H](O[C@@H]3O[C@@H]5CO[C@@H](C)O[C@H]5[C@H](O)[C@H]3O)[C@H]3COC(=O)[C@H]23)OCO4)cc(OC)c1O", "note": "[etoposide]", "values": [
      {"measurement": "thermal activity as a result of hair-loss", "setting": "hair-loss", "value": "increased thermal activity in both the fronts and backs as a result of hair-loss"}
    ]},
    {"compound": "VEGF", "values": [
      {"measurement": "thermogenesis in local area of injection", "setting": "tissue vascularization", "value": "enhanced thermogenesis"},
      {"measurement": "thermogenesis in HUVEC cells", "setting": "HUVEC cells", "value": "induced thermogenesis"}
    ]},
    {"compound": "lipopolysaccharide [LPS]", "values": [
      {"measurement": "liver thermogenesis", "setting": "liver", "value": "thermogenesis is increased"}
    ]}
  ]
}
